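Test compounds were applied to cells in 96-well plates for 48 hours at 5 doses. GI50 is the concentration that inhibits growth by half.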 Calls of active or inactive are those of the source. No stated cut-off is given here; in the data, active = GI50 up to about 1.1 µM and inactive = higher.
What was measured:
Assay in all cases: inhibition of tumour cell growth, NCI panel, 48 h
[1] = system: LXFL 529
[2] = system: HOP-62
[3] = system: NCI-H522
[4] = system: LOX IMVI
[5] = system: SF-268
[6] = system: HCT-15
[7] = system: UACC-62
[8] = system: OVCAR-5
[9] = system: ACHN
[10] = system: SK-MEL-2
[11] = system: CAKI-1
[12] = system: KM-20L2
[13] = system: SN12C
[14] = system: OVCAR-3
[15] = system: HT-29
[16] = system: TK-10
[17] = system: UACC-257
[18] = system: HCC 2998
[19] = system: DLD-1
[20] = system: SNB-75
[21] = system: RXF 393
[22] = system: HL-60
[23] = system: SW-620
[24] = system: DMS-273
[25] = system: SK-MEL-5
[26] = system: NCI-H226
[27] = system: KM12
[28] = system: OVCAR-4
[29] = system: OVCAR-8
[30] = system: SK-OV-3
[31] = system: NCI-H460
[32] = system: SF-295
[33] = system: HOP-92
[34] = system: CCRF-CEM
[35] = system: SK-MEL-28
[36] = system: MOLT-4
[37] = system: M14
[38] = system: UO-31
[39] = system: HCT-116
[40] = system: 786-0
[41] = system: M19-MEL
[42] = system: SF-539
[43] = system: SNB-19
[44] = system: A549
[45] = system: EKVX
[46] = system: K562
[47] = system: COLO 205
[48] = system: Malme-3M
[49] = system: HOP-18
[50] = system: U-251
[51] = system: RPMI-8226
[52] = system: A498
[53] = system: IGROV-1
[54] = system: RXF 631
[55] = system: NCI-H23
[56] = system: DMS-114
[57] = system: SR
[58] = system: SNB-78

COc1cc([C@@H]2c3cc4c(cc3[C@@H](NCc3cccc(C#N)c3)C3COC(=O)[C@@H]32)OCO4)cc(OC)c1O (stereo partly specified)
GI50 [1]: 5.9 µM (inactive)
GI50 [2]: 0.439 µM (active)
GI50 [3]: 1.46 µM (inactive)
GI50 [4]: 1.27 µM (inactive)
GI50 [5]: 2.22 µM (inactive)
GI50 [6]: 1.17 µM
GI50 [7]: 0.524 µM (active)
GI50 [8]: 2.84 µM (inactive)
GI50 [9]: 0.305 µM (active)
GI50 [10]: 3.77 µM (inactive)
GI50 [11]: 1 µM (active)
GI50 [12]: 1.58 µM (inactive)
GI50 [13]: 0.448 µM (active)
GI50 [14]: 2.57 µM (inactive)
GI50 [15]: 1.48 µM (inactive)
GI50 [16]: 2.39 µM (inactive)
GI50 [17]: 6.64 µM (inactive)
GI50 [18]: 1.48 µM (inactive)
GI50 [19]: 1.7 µM (inactive)
GI50 [20]: 1.06 µM (active)
GI50 [21]: 2.34 µM (inactive)
GI50 [22]: 0.149 µM (active)
GI50 [23]: 0.646 µM (active)
GI50 [24]: 0.349 µM (active)
GI50 [25]: 2.02 µM (inactive)
GI50 [26]: 0.225 µM (active)
GI50 [27]: 1.62 µM (inactive)
GI50 [28]: 68.7 µM (inactive)
GI50 [29]: 1.43 µM (inactive)
GI50 [30]: 1.53 µM (inactive)
GI50 [31]: 0.0356 µM (active)
GI50 [32]: 0.925 µM (active)
GI50 [33]: 1.32 µM (inactive)
GI50 [34]: 0.224 µM (active)
GI50 [35]: 3.32 µM (inactive)
GI50 [36]: 0.0386 µM (active)
GI50 [37]: 1.64 µM (inactive)
GI50 [38]: 2.22 µM (inactive)
GI50 [39]: 2.12 µM (inactive)
GI50 [40]: 1.02 µM (active)
GI50 [41]: 5.7 µM (inactive)
GI50 [42]: 0.326 µM (active)
GI50 [43]: 1.1 µM (active)
GI50 [44]: 0.0815 µM (active)
GI50 [45]: 2.39 µM (inactive)
GI50 [46]: 1.83 µM (inactive)
GI50 [47]: 2.99 µM (inactive)
GI50 [48]: 2.18 µM (inactive)
GI50 [49]: > 100 µM (inactive)
GI50 [50]: 0.303 µM (active)
GI50 [51]: 1.2 µM (inactive)
GI50 [52]: 1.43 µM (inactive)
GI50 [53]: 1.03 µM (active)
GI50 [54]: 1.29 µM (inactive)
GI50 [55]: 0.428 µM (active)
GI50 [56]: 1.87 µM (inactive)

CC(=O)OC1(C#N)CC2OC1C1C2N=NN1C(=O)OC(C)(C)C (stereo unspecified)
GI50 [1]: 33 µM (inactive)
GI50 [2]: > 100 µM (inactive)
GI50 [3]: > 100 µM (inactive)
GI50 [4]: 11.5 µM (inactive)
GI50 [5]: 37.1 µM (inactive)
GI50 [57]: 32.8 µM (inactive)
GI50 [6]: 21.4 µM
GI50 [7]: 19.5 µM (inactive)
GI50 [8]: 54.6 µM (inactive)
GI50 [9]: > 100 µM (inactive)
GI50 [10]: 23.4 µM (inactive)
GI50 [11]: > 100 µM (inactive)
GI50 [12]: 55.8 µM (inactive)
GI50 [13]: 35.6 µM (inactive)
GI50 [14]: 47.6 µM (inactive)
GI50 [15]: 39.4 µM (inactive)
GI50 [16]: 20.4 µM (inactive)
GI50 [17]: 35.4 µM (inactive)
GI50 [18]: 44.5 µM (inactive)
GI50 [19]: 20.4 µM (inactive)
GI50 [20]: 31.8 µM (inactive)
GI50 [21]: 40.6 µM (inactive)
GI50 [23]: 30.7 µM (inactive)
GI50 [24]: 29 µM (inactive)
GI50 [25]: 35.3 µM (inactive)
GI50 [28]: 65.6 µM (inactive)
GI50 [29]: 34.6 µM (inactive)
GI50 [31]: 32 µM (inactive)
GI50 [33]: 27.5 µM (inactive)
GI50 [34]: 15.2 µM (inactive)
GI50 [35]: 28.8 µM (inactive)
GI50 [36]: 50.1 µM (inactive)
GI50 [37]: 21 µM (inactive)
GI50 [58]: 26.9 µM (inactive)
GI50 [38]: 73.3 µM (inactive)
GI50 [39]: 12.5 µM (inactive)
GI50 [41]: 16.5 µM (inactive)
GI50 [42]: 23.2 µM (inactive)
GI50 [44]: 34.4 µM (inactive)
GI50 [45]: 68.2 µM (inactive)
GI50 [46]: 33.5 µM (inactive)
GI50 [47]: > 100 µM (inactive)
GI50 [48]: 21.9 µM (inactive)
GI50 [49]: > 100 µM (inactive)
GI50 [51]: 39.9 µM (inactive)
GI50 [53]: 35 µM (inactive)
GI50 [54]: 50.6 µM (inactive)
GI50 [55]: 29.6 µM (inactive)
GI50 [56]: 23.2 µM (inactive)

CC1=NNC(=O)C2CCC(=O)N12 (stereo unspecified)
GI50 [1]: > 100 µM (inactive)
GI50 [2]: > 100 µM (inactive)
GI50 [3]: > 100 µM (inactive)
GI50 [5]: > 100 µM (inactive)
GI50 [57]: > 100 µM (inactive)
GI50 [6]: > 100 µM
GI50 [9]: > 100 µM (inactive)
GI50 [10]: > 100 µM (inactive)
GI50 [11]: > 100 µM (inactive)
GI50 [12]: 49.2 µM (inactive)
GI50 [13]: > 100 µM (inactive)
GI50 [14]: > 100 µM (inactive)
GI50 [16]: > 100 µM (inactive)
GI50 [17]: > 100 µM (inactive)
GI50 [18]: > 100 µM (inactive)
GI50 [19]: > 100 µM (inactive)
GI50 [20]: > 100 µM (inactive)
GI50 [21]: > 100 µM (inactive)
GI50 [22]: > 100 µM (inactive)
GI50 [23]: > 100 µM (inactive)
GI50 [24]: > 100 µM (inactive)
GI50 [25]: > 100 µM (inactive)
GI50 [26]: > 100 µM (inactive)
GI50 [27]: > 100 µM (inactive)
GI50 [28]: > 100 µM (inactive)
GI50 [29]: > 100 µM (inactive)
GI50 [30]: > 100 µM (inactive)
GI50 [31]: > 100 µM (inactive)
GI50 [34]: > 100 µM (inactive)
GI50 [35]: > 100 µM (inactive)
GI50 [36]: > 100 µM (inactive)
GI50 [37]: > 100 µM (inactive)
GI50 [58]: > 100 µM (inactive)
GI50 [38]: > 100 µM (inactive)
GI50 [39]: > 100 µM (inactive)
GI50 [40]: > 100 µM (inactive)
GI50 [41]: > 100 µM (inactive)
GI50 [42]: > 100 µM (inactive)
GI50 [43]: > 100 µM (inactive)
GI50 [44]: > 100 µM (inactive)
GI50 [45]: > 100 µM (inactive)
GI50 [46]: > 100 µM (inactive)
GI50 [47]: > 100 µM (inactive)
GI50 [48]: > 100 µM (inactive)
GI50 [49]: > 100 µM (inactive)
GI50 [50]: > 100 µM (inactive)
GI50 [51]: > 100 µM (inactive)
GI50 [52]: > 100 µM (inactive)
GI50 [53]: > 100 µM (inactive)
GI50 [54]: > 100 µM (inactive)
GI50 [56]: > 100 µM (inactive)

Source: ChEMBL document CHEMBL1201862, “PubChem BioAssay data set” (2004)
